How the values were obtained:
[1] = test system: Human adipose tissue derived stem cells (hADSCs); assay: Cytotoxicity assay by lactate dehydrogenase (LDH) leakage in hADSCs; type: cell-based; details: 10 μM, % of total cell toxicity
Procedure: (§1) Human adipose tissue derived stem cells (hADSCs), which is derived from adipose tissue, were selected an maintained in a keratinocyte SFM medium (Gibco BRL, Gaithersburg, Md.) supplemented with 5% FBS, 100 U/ml of penicillin and streptomycin.
(§2) New synthetic compounds were dissolved in DMSO to a final concentration of 10 mM and stored at −20° C. The concentration used was 10 μM and freshly diluted to the medium with a final concentration of DMSO at 0.1%. Control cultures were treated with the same amount of DMSO as used in the corresponding experiments.
Lactate dehydrogenase (LDH) leakage from cells was measured to quantify the cytotoxicity by using a cytotoxicity detection kit (Roche, Germany) (Crowston, J. G. et al Invest. Ophthalmol. Vis. Sci. 1998, 39, 449). Cells were previously seeded into 48-well plates (4×10^4 cells/well). After a drug treatment, the supernatants and cell layers of the cultures were collected for assay. According to the manufacturer's guidelines for the detection kit, cell layers were lysed with 1% TritonX-100, and cell lysates and supernatants were assayed in a 96-well plate, respectively. Briefly, 100 μL of catalyst solution was added in each assay well for 20 min. Absorbance was measured with an ELISA reader with a 490 nm filter. LDH leakage was shown as relative activity (% of total cell toxicity).

[2] = test system: NCI-H460 cells (non-small-cell lung cancer); assay: Cytotoxicity assay (MTS reduction), NCI-H460; type: cell-based, human; details: for activity at 4 µg/mL / activity at 20 µg/mL: Homo sapiens, NCI-H460, 72 h, 3 days, % of DMSO control, read-out: Growth percentage NCI-H460 (Lung); for activity at 4 µg/mL / inhibition of growth of NCI-H460 (in words): 4 μg/mL; for activity at 20 µg/mL: 20 μg/mL
Procedure: (§3) MCF-7 cells (human breast adenocarcinoma), NCI-H460 cells (non-small-cell lung cancer) and SF-268cells (glioblastoma cells) were cultured in a Dulbecco's modified Eagle's medium supplemented with a 10% fetal calf serum and a nonessential amino acid (Life Technologies, Inc.) and maintained at 37° C. in a humidified incubator with 5% CO2.
(§4) Human cancer cells were seeded in 96-well microtiter plates at a density of 6500, 2500 and 7500 cells/well in 100 μl of culture medium for MCF-7, NCI-H460, and SF-268, respectively. […] Cells were treated with test compounds for 3 days. Cell viability was determined by the 5-[3-(carboxymethoxy)-phenyl]-2-(4,5-dimethylthiazolyl)-3-(4-sulfophenyl)tetrazolium salt (MTS) reduction assay. Actinomycin D (10 μM, final concentration) and DMSO (0.1%, final concentration) were used as positive and vehicle controls, respectively. Results were expressed as a % of the DMSO control.

[3] = test system: Human adipose tissue derived stem cells (hADSCs); assay: Osteogenic differentiation and quantification of mineralization (Alizarin red S) in hADSCs; type: cell-based; details: 10 μM
Procedure: as §1, §2
Osteogenic differentiation was induced by culturing cells in an osteo-induction medium (OIM, 10% FBS, 0.1 μM dexamethasone, 10 mM β-glycerophosphate, and L-Ascorbic 2 phosphate 100 μM in low glucose DMEM) for 7-14 days. The extracellular matrix calcification was estimated by using an Alizarin red S stain (Carl, A. et al Anal. Biochem. 2004, 329, 77). The Alizarin red S-stained mineral was quantified by the osteogenesis quantification kit (CHEMICON®).

[4] = test system: MCF-7 cells (human breast adenocarcinoma); assay: Cytotoxicity assay (MTS reduction), MCF-7; type: cell-based; details: for activity at 4 µg/mL / activity at 20 µg/mL: Homo sapiens, MCF7, 72 h, 3 days, % of DMSO control, read-out: Growth percentage MCF7 (Breast); for activity at 4 µg/mL / inhibition of growth of MCF7 (in words): 4 μg/mL; for activity at 20 µg/mL: 20 μg/mL
Procedure: as §3, §4

[5] = Cell viability by MTT assay in hADSCs; type: cell-based, human; details: human, human adipose tissue derived stem cells (hADSCs), % of control
Procedure: as §1, §2
The MTT assay is a calorimetric assay based on the ability of the viable cells to reduce a soluble yellow tetrazolium salt to blue formazan crystals (Carmichael, J. et. el. Cancer Research 1987, 47, 936). After compound treatments, 350 μL of MTT solution ([…] in PBS) were added to each well and incubated for 4 hrs. DMSO was then added for another 0.5 hrs to thoroughly dissolve the dark blue crystals. The absorbance at 570 nm was measured with an ELISA reader. Inhibition of mitochondrial metabolism was shown as relative activity (% of control).

[6] = test system: SF-268 cells (glioblastoma cells); assay: Cytotoxicity assay (MTS reduction), SF-268; type: cell-based, human; details: for activity at 4 µg/mL / activity at 20 µg/mL: Homo sapiens, SF-268, 72 h, 3 days, % of DMSO control, read-out: Growth percentage SF-268 (CNS); for activity at 4 µg/mL / inhibition of growth of SF-268 (in words): 4 μg/mL; for activity at 20 µg/mL: 20 μg/mL
Procedure: as §3, §4

Structure (SMILES) | Cell cytotoxicity (3 days, LDH) [1] [%] | activity at 4 µg/mL [2] [%] | activity at 20 µg/mL [2] [%] | osteoblast activity (mineralization in hADSCs), in words [3] | activity at 4 µg/mL [4] [%] | activity at 20 µg/mL [4] [%] | viability at 3 days, 10 µM [5] [%] | activity at 4 µg/mL [6] [%] | activity at 20 µg/mL [6] [%] | inhibition of growth of NCI-H460 (in words) [2] | inhibition of growth of MCF7 (in words) [4] | inhibition of growth of SF-268 (in words) [6]
COc1ccc(-c2cnoc2-c2ccc(OC(C)C)cc2OCCCCN2CCCC2)cc1 [5a, 5-{4-Isopropoxy-2-[4-(pyrrolidin-1-yl)butoxy]phenyl}-4-(4-methoxyphenyl)isoxazole] | 0 | 81 | 1 | more active than ipriflavone | 83 | 1 | 71 | 121 | 2 |  |  | 
COc1ccc(-c2cnoc2-c2ccc(OC(C)C)cc2OCCCCN2CCOCC2)cc1 [5b, 4-{4-{5-Isopropoxy-2-[4-(4-methoxyphenyl)isoxazol-5-yl]phenoxy}butyl}morpholine] | 13 | 52 | 1 |  | 63 | 4 | 58 | 58 | 3 |  |  | 
COc1ccc(-c2cnoc2-c2ccc(OC(C)C)cc2OCCCCN2CCNCC2)cc1 [5c, 5-{4-Isopropoxy-2-[4-(piperazin-1-yl)butoxy]phenyl}-4-(4-methoxyphenyl)isoxazole] | 33 | 29 | 0 |  | 7 | -1 | 86 | 68 | -2 |  |  | 
COc1ccc(-c2cnoc2-c2ccc(OC(C)C)cc2OCCCCN2CCCCC2)cc1 [5d, 5-{4-Isopropoxy-2-[4-(piperidin-1-yl)butoxy]phenyl}-4-(4-methoxyphenyl)isoxazole] | 0 | 68 | 1 |  | 90 | 1 | 78 | 119 | 2 |  |  | 
COc1ccc(-c2cnoc2-c2ccc(OC(C)C)cc2OCCCCCCN2CCCC2)cc1 [5e, 5-{4-Isopropoxy-2-[6-(pyrrolidin-1-yl)hexyloxy]phenyl}-4-(4-methoxyphenyl)isoxazole] | 0 | 22 | 1 | more active than ipriflavone | 55 | 0 | 64 | 38 | 1 |  |  | 
COc1ccc(-c2cnoc2-c2ccc(OC(C)C)cc2OCCCCCCN2CCOCC2)cc1 [5f, 4-{6-{5-Isopropoxy-2-[4-(4-methoxyphenyl)isoxazol-5-yl]phenoxy}hexyl}morpholine] | 17 | 17 | 0 |  | 44 | -1 | 53 | 38 | 1 |  |  | 
COc1ccc(-c2cnoc2-c2ccc(OC(C)C)cc2OCCCCCCN2CCNCC2)cc1 [5g, 5-{4-Isopropoxy-2-[6-(piperazin-1-yl)hexyloxy]phenyl}-4-(4-methoxyphenyl)isoxazole] | 0 | 0 | -1 |  | 14 | -3 | 60 | 20 | -1 | significantly inhibit the growth | significantly inhibit the growth | significantly inhibit the growth
COc1ccc(-c2cnoc2-c2ccc(OC(C)C)cc2OCCCCCCN2CCCCC2)cc1 [5h, 5-{4-isopropoxy-2-[6-(piperidin-1-yl)hexyloxy]phenyl}-4-(4-methoxyphenyl)isoxazole] | 0 | 2 | -1 |  | 13 | -3 | 57 | 4 | -1 | significantly inhibit the growth | significantly inhibit the growth | significantly inhibit the growth
COc1ccc(-c2cnoc2-c2ccc(OC(C)C)cc2OCCCCCCCN2CCCC2)cc1 [5i, 5-{4-Isopropoxy-2-[7-(pyrrolidin-1-yl)heptyloxy]phenyl}-4-(4-methoxyphenyl)isoxazole] | 0 | 11 | 1 |  | 32 | 2 | 63 | 30 | 2 |  |  | 
COc1ccc(-c2cnoc2-c2ccc(OC(C)C)cc2OCCCCCCCN2CCOCC2)cc1 [5j, 4-{7-{5-isopropoxy-2-[4-(4-methoxyphenyl)isoxazol-5-yl]phenoxy}heptyl}morpholine] | 12 | 10 | 0 |  | 25 | 1 | 54 | 32 | 2 |  |  | 
COc1ccc(-c2cnoc2-c2ccc(OC(C)C)cc2OCCCCCCCN2CCNCC2)cc1 [5k] | 0 | 0 | 1 |  | 1 | 1 | 68 | 3 | 1 |  |  | 
COc1ccc(-c2cnoc2-c2ccc(OC(C)C)cc2OCCCCCCCN2CCCCC2)cc1 [5l, 5-{4-Isopropoxy-2-[7-(piperidin-1-yl)heptyloxy]phenyl}-4-(4-methoxyphenyl)isoxazole] | 0 | 8 | 1 |  | 29 | 1 | 58 | 25 | 2 |  |  | 
COc1ccc(-c2cnoc2-c2ccc(OCCCCCCN3CCNCC3)cc2O)cc1 [8a] | 0 | 29 | 0 |  | 7 | -1 | 64 | 68 | -2 |  |  | 
CC(C)Oc1ccc2c(=O)c(-c3ccccc3)coc2c1 [Ipriflavone, reference compound] | 0 |  |  |  |  |  | 77 |  |  |  |  | 
COc1ccc(-c2cnoc2-c2ccc(OC(C)C)cc2O)cc1 [compound 3, 5-Isopropoxy-2-[4-(4-methoxyphenyl)isoxazol-5-yl]phenol] | 68 |  |  |  |  |  | 6 |  |  |  |  | 

Source: patent US8138184B2, “Isoxazole derivatives and pharmaceutical compositions comprising the same” (Kaohsiung Medical University, priority 2008, dated 2012)
